Test systems include A498 renal; NCI-H226 lung; SR leukemia; U251 CNS; SW-620 colon; OVCAR-4 ovarian; OVCAR-5 ovarian; SK-OV-3 ovarian; UACC-257 melanoma; T-47D breast; TK-10 renal; K-562 leukemia; 786-0 renal.
Common to all, as to test: inhibition of tumour cell growth, NCI panel, 48 h

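How tested: cells in 96-well plates exposed to compound for 48 hours at five concentrations. TGI marks complete inhibition of growth.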

Turning to `CC1=C(OC2OC(CO)C(O)C(O)C2O)C(=O)C[C@H]2C1=CC[C@@H]1[C@@]2(C)C(=O)C[C@]2(C)[C@@H]([C@@](C)(O)C(=O)CCC(C)(C)O)[C@H](O)C[C@@]12C` (some centres undefined), the TGI in the test with A498 renal, in the test on NCI-H226 lung, in the test on SR leukemia, in the test with U251 CNS, in the test on SW-620 colon and with OVCAR-4 ovarian was greater than 100 µM throughout. Also, the TGI in the test with OVCAR-5 ovarian, with SK-OV-3 ovarian, in the test with UACC-257 melanoma, with T-47D breast, in the test with TK-10 renal and in the test on K-562 leukemia was greater than 100 µM in each case. Also, the TGI in the test on 786-0 renal is greater than 100 µM.
`CCN(CC)CCS(=O)c1c2cc(OC)ccc2nc2ccc(OC)cc12` (centres undefined): the TGI was 33.1 µM with A498 renal; 39.5 µM in the test on NCI-H226 lung; greater than 23.7 µM in the test on SR leukemia; greater than 60.6 µM in the test on U251 CNS; greater than 21.9 µM with SW-620 colon; 29.7 µM in the test on OVCAR-4 ovarian. Besides, the TGI in the test with OVCAR-5 ovarian was 36.1 µM; in the test on SK-OV-3 ovarian, 40.9 µM; in the test on UACC-257 melanoma it was 17.6 µM; with T-47D breast, 4.04 µM; in the test on TK-10 renal, 11.7 µM; in the test with K-562 leukemia, greater than 25.7 µM. For the same molecule, in the test with 786-0 renal, the TGI was found to be 4.35 µM.
On to `CCOC(=O)n1cncc1CC(NC(=O)Cc1c(C(=O)C=C(C)C)[nH]c2ccccc12)C(=O)OC` (centres undefined), for which the TGI is 41.1 µM in the test on A498 renal; 41.3 µM in the test on NCI-H226 lung; 16.1 µM in the test with SR leukemia; 44.9 µM with U251 CNS; greater than 100 µM in the test with SW-620 colon; 37.9 µM in the test on OVCAR-4 ovarian. Also, the TGI in the test on OVCAR-5 ovarian was 35 µM; in the test with SK-OV-3 ovarian it was 35.3 µM; with UACC-257 melanoma, 28.2 µM; in the test on T-47D breast it was 7.46 µM; in the test with TK-10 renal, 34.2 µM; in the test on K-562 leukemia, greater than 100 µM. In the test with 786-0 renal, this molecule registered a TGI of 55.5 µM.
As for `CCCCc1c2c(nc3c1CCC/C3=C\c1ccccc1)C(=O)C(CN(C)C)CC2` (centres undefined), the TGI in the test on A498 renal was determined as 33.2 µM; in the test with NCI-H226 lung it was 51.6 µM; with SR leukemia, 9.17 µM; in the test on U251 CNS, 32.5 µM; in the test with SW-620 colon it was 31.5 µM; in the test with OVCAR-4 ovarian it was 22.9 µM. The TGI in the test with OVCAR-5 ovarian stood at 33.8 µM; in the test with SK-OV-3 ovarian it was 40.6 µM; in the test on UACC-257 melanoma, 33.7 µM; with T-47D breast, 14 µM; in the test on TK-10 renal, 29.6 µM; in the test with K-562 leukemia, 21.5 µM. Further, the TGI in the test with 786-0 renal was determined as 23.9 µM.
`CC(=O)CCC[C@@H](C)[C@@H]1O[C@H]([C@@]2(C)CCC(=O)O2)C[C@H]2C(CSc3ccccc3)C(=O)O[C@@H]12` (some centres undefined): the TGI in the test with A498 renal was greater than 88.9 µM; in the test with NCI-H226 lung, 37.5 µM; with SR leukemia, greater than 100 µM; in the test with U251 CNS, 36.3 µM; in the test on SW-620 colon, 28.8 µM; with OVCAR-4 ovarian, 31.8 µM. For the same molecule, the TGI with OVCAR-5 ovarian was 32.4 µM; in the test with SK-OV-3 ovarian, greater than 100 µM; in the test with UACC-257 melanoma, 28.1 µM; in the test on T-47D breast, 38 µM; in the test on TK-10 renal, 25.6 µM; with K-562 leukemia, greater than 100 µM. Further, the TGI in the test with 786-0 renal was determined as 42.2 µM.
As to `CC(C)(C)N1NC1C1NN1C(C)(C)C` (centres undefined), the TGI in the test with A498 renal, in the test on NCI-H226 lung, in the test with SR leukemia, with U251 CNS, with SW-620 colon and in the test with OVCAR-4 ovarian was greater than 100 µM throughout. Also, the TGI in the test on OVCAR-5 ovarian, in the test with SK-OV-3 ovarian, in the test with UACC-257 melanoma, with T-47D breast, in the test on TK-10 renal and in the test on K-562 leukemia was greater than 100 µM each time. Besides, in the test with 786-0 renal, the TGI is greater than 100 µM.
`O=C(Nc1nc(C23CC4CC(CC(C4)C2)C3)cs1)c1cc2cc(Br)cc(Br)c2oc1=O`: the TGI is greater than 100 µM with A498 renal; greater than 100 µM in the test on NCI-H226 lung; greater than 100 µM in the test with SR leukemia; 41.5 µM in the test on U251 CNS; greater than 100 µM with SW-620 colon; greater than 100 µM with OVCAR-4 ovarian. Moreover, the TGI with OVCAR-5 ovarian, in the test on SK-OV-3 ovarian, in the test with UACC-257 melanoma, with T-47D breast, in the test with TK-10 renal and in the test on K-562 leukemia was greater than 100 µM throughout. In the test on 786-0 renal, this molecule registered a TGI greater than 100 µM.
For `c1ccc(CCN(Cc2nc3ccccc3[nH]2)Cc2nc3ccccc3[nH]2)cc1`, the TGI with A498 renal is 30.6 µM; in the test on NCI-H226 lung, greater than 68.5 µM; in the test with SR leukemia, 35.3 µM; in the test with U251 CNS, 19.8 µM; in the test on SW-620 colon it was 26 µM; in the test with OVCAR-4 ovarian, 68.9 µM. Further, the TGI in the test on OVCAR-5 ovarian is 71.6 µM; in the test with SK-OV-3 ovarian, 70 µM; in the test with UACC-257 melanoma, 32.5 µM; in the test with T-47D breast it was 40.8 µM; in the test on TK-10 renal, 35.7 µM; in the test with K-562 leukemia, 12.9 µM. In the test on 786-0 renal, the TGI stood at 31.7 µM.

(Values after PubChem BioAssay (NCI).)
